Results published in patent US6667413B2, “Uracil compounds and use thereof” (Sumitomo Chemical Company, Limited, priority 1999, dated 2003).

How the values were obtained:
Assay type in all cases: in vivo
[1] = system: Ivyleaf morningglory (Ipomoea hederacea); experiment: Test Example 4: soil surface treatment, herbicidal activity; conditions: sprayed over the surface of the soil, 2000 g/ha, 7 days after application
Text: (§1) A cylindrical plastic pot having a diameter of 10 cm and a depth of 10 cm was filled with soil and then seeded with Ivyleaf morningglory (Ipomoea hederacea), velvetleaf (Abutilon theophrasti), barnyardgrass (Echinochloa crus-galli) and blackgrass (Alopecurus myosuroides). Then, each of the compounds 3-2,3-11, 3-12, 3-16, 3-20 and 3-198 was formulated into an emulsifiable concentrate according to Formulation Example 2 and then diluted to the prescribed amount with water, and the dilution was uniformly sprayed over the surface of the soil with a sprayer at a rate of 1000 liters per hectare. After the application, the test plants were grown in the greenhouse for 7 days, and the herbicidal activity of the applied composition was examined.

[2] = system: blackgrass (Alopecurus myosuroides); experiment: as above; conditions: sprayed over the surface of the soil, 2000 g/ha, 7 days after application
Text: as §1

[3] = system: barnyardgrass (Echinochloa crus-galli); experiment: as above; conditions: sprayed over the surface of the soil, 2000 g/ha, 7 days after application
Text: as §1

[4] = system: velvetleaf (Abutilon theophrasti); experiment: as above; conditions: sprayed over the surface of the soil, 2000 g/ha, 7 days after application
Text: as §1

[5] = system: Broadleaf signalgrass (Brachiaria platyphylla); experiment: Test Example 6: foliar treatment, herbicidal activity index; design: key: 0: no or little difference in the degree of germination or growth between the treated and the untreated tested plants at the time of examination; 10: the test plants died complete or their germination or growth was completely inhibited; conditions: foliar spray, 4 days after application, index 0 to 10
Experimental: (§2) A plastic pot (27 cm×19 cm×7 cm) was filled with soil and then seeded with Johnsongrass (Sorghum halepense), Giant foxtail (Setaria faberi), barnyardgrass (Echinochloa crus-galli), large crabgrass (Digitaria sanguinalis), Broadleaf signalgrass (Brachiaria platyphylla) and wild oat (Avena fatua). These test plants were grown in a greenhouse for 25 days. After then, each of the compounds 3-11, 4-22, B and C was formulated into an emulsifiable concentrate according to Formulation Example 2 and then diluted to the prescribed amount with water containing a spreading agent and the dilution was uniformly sprayed over the foliage of the test plants with a sprayer at a rate of 1000 liters per hectare. After the application, the test plants were grown in the greenhouse for 4 days, and the herbicidal activity was examined. (In the Table 9, the test plants are shown as follows. Johnsongrass: J, Giant foxtail: GF, Barnyardgrass: B Large crabgrass: LC, Broadleaf signalgrass: BC wild oat: W

[6] = system: barnyardgrass (Echinochloa crus-galli); experiment: as above; design: key: 0: no or little difference in the degree of germination or growth between the treated and the untreated tested plants at the time of examination; 10: the test plants died complete or their germination or growth was completely inhibited; conditions: foliar spray, 4 days after application, index 0 to 10
Experimental: as §2

[7] = system: Johnsongrass (Sorghum halepense); experiment: as above; design: key: 0: no or little difference in the degree of germination or growth between the treated and the untreated tested plants at the time of examination; 10: the test plants died complete or their germination or growth was completely inhibited; conditions: foliar spray, 4 days after application, index 0 to 10
Experimental: as §2

[8] = system: large crabgrass (Digitaria sanguinalis); experiment: as above; design: key: 0: no or little difference in the degree of germination or growth between the treated and the untreated tested plants at the time of examination; 10: the test plants died complete or their germination or growth was completely inhibited; conditions: foliar spray, 4 days after application, index 0 to 10
Experimental: as §2

wild oat (Avena fatua) = experiment: as above; design: key: 0: no or little difference in the degree of germination or growth between the treated and the untreated tested plants at the time of examination; 10: the test plants died complete or their germination or growth was completely inhibited; conditions: foliar spray, 4 days after application, index 0 to 10
Experimental: as §2

[9] = system: Giant foxtail (Setaria faberi); experiment: as above; design: key: 0: no or little difference in the degree of germination or growth between the treated and the untreated tested plants at the time of examination; 10: the test plants died complete or their germination or growth was completely inhibited; conditions: foliar spray, 4 days after application, index 0 to 10
Experimental: as §2

[10] = system: Ivyleaf morningglory (Ipomoea hederacea); experiment: Test Example 1: foliar treatment, herbicidal activity; conditions: foliar spray, 125 g/ha, 7 days after application
Experimental: (§3) A cylindrical plastic pot having a diameter of 10 cm and a depth of 10 cm was filled with soil and then seeded with Ivyleaf morningglory (Ipomoea hederacea), velvetleaf (Abutilon theophrasti), barnyardgrass (Echinochloa crus-galli) and blackgrass (Alopecurus myosuroides). These test plants were grown in a greenhouse for 9 days. Then, each of compounds 1-1,2-1, 3-1,3-2, 3-11 and 3-12 was formulated into an emulsifiable concentrate according to Formulation Example 2 and then diluted to the prescribed amount with water containing a spreading agent and the dilution was uniformly sprayed over the foliage of the test plants with a sprayer at a rate of 1000 liters per hectare After the application, the test plants were grown in the greenhouse for 7 days, and the herbicidal activity of the applied composition was determined.

[11] = system: blackgrass (Alopecurus myosuroides); experiment: as above; conditions: foliar spray, 125 g/ha, 7 days after application
Experimental: as §3

[12] = system: barnyardgrass (Echinochloa crus-galli); experiment: as above; conditions: foliar spray, 125 g/ha, 7 days after application
Experimental: as §3

[13] = system: velvetleaf (Abutilon theophrasti); experiment: as above; conditions: foliar spray, 125 g/ha, 7 days after application
Experimental: as §3

[14] = system: Ivyleaf morningglory (Ipomoea hederacea); experiment: Test Example 2: soil surface treatment, herbicidal activity; conditions: sprayed over the surface of the soil, 500 g/ha, 7 days after application
Text: as §1, with “theophrasti) and” for “theophrasti),”, “crus-galli).” for “crus-galli) and blackgrass (Alopecurus myosuroides).”, “1-1,2-1” for “3-2,3-11, 3-12, 3-16, 3-20”, “3-1” for “3-198”

[15] = system: barnyardgrass (Echinochloa crus-galli); experiment: as above; conditions: sprayed over the surface of the soil, 500 g/ha, 7 days after application
Text: as §1, with “theophrasti) and” for “theophrasti),”, “crus-galli).” for “crus-galli) and blackgrass (Alopecurus myosuroides).”, “1-1,2-1” for “3-2,3-11, 3-12, 3-16, 3-20”, “3-1” for “3-198”

[16] = system: velvetleaf (Abutilon theophrasti); experiment: as above; conditions: sprayed over the surface of the soil, 500 g/ha, 7 days after application
Text: as §1, with “theophrasti) and” for “theophrasti),”, “crus-galli).” for “crus-galli) and blackgrass (Alopecurus myosuroides).”, “1-1,2-1” for “3-2,3-11, 3-12, 3-16, 3-20”, “3-1” for “3-198”

SMILES | Herbicidal activity BC ([5]; 0.33 g/ha) | Herbicidal activity BC ([5]; 1 g/ha) | Herbicidal activity BC ([5]; 3.3 g/ha) | Herbicidal activity B ([6]; 0.33 g/ha) | Herbicidal activity B ([6]; 1 g/ha) | Herbicidal activity B ([6]; 3.3 g/ha) | Herbicidal activity J ([7]; 0.33 g/ha) | Herbicidal activity J ([7]; 1 g/ha) | Herbicidal activity J ([7]; 3.3 g/ha) | Herbicidal activity LC ([8]; 0.33 g/ha) | Herbicidal activity LC ([8]; 1 g/ha) | Herbicidal activity LC ([8]; 3.3 g/ha) | Herbicidal activity W (wild oat (Avena fatua); 0.33 g/ha) | Herbicidal activity W (wild oat (Avena fatua); 1 g/ha) | Herbicidal activity W (wild oat (Avena fatua); 3.3 g/ha) | Herbicidal activity GF ([9]; 0.33 g/ha) | growth of Ivyleaf morningglory [10] | growth of blackgrass [11] | growth of barnyardgrass [12] | growth of velvetleaf [13] | further results
COC(=O)COc1ccccc1Oc1cc(-n2c(=O)cc(C(F)(F)F)n(C)c2=O)c(F)cc1Cl [Compound 3-11, Methyl [2-{2-chloro-4-fluoro-5-[3-methyl-2,6-dioxo-4-(trifluoromethyl)-1,2,3,6-tetrahydropyrimidin-1-yl]phenoxy}phenoxy]acetate] | 8 | 9 | 10 | 7 | 8 | 10 | 8 | 9 | 10 | 8 | 9 | 10 | 8 | 10 | 10 | 8 | completely controlled | completely controlled | completely controlled | completely controlled | emergence of Ivyleaf morningglory [1]: completely controlled; emergence of blackgrass [2]: completely controlled; emergence of barnyardgrass [3]: completely controlled; emergence of velvetleaf [4]: completely controlled; Herbicidal activity GF ([9]; 1 g/ha): 9; Herbicidal activity GF ([9]; 3.3 g/ha): 9
COC(=O)C(C)Oc1ccc(Oc2cc(-n3c(=O)cc(C(F)(F)F)n(C)c3=O)c(F)cc2Cl)cc1 (centres unmarked) [Compound 1-1, methyl 2-[4-{2-chloro-4-fluoro-5-[3-methyl-2,6-dioxo-4-(trifluoromethyl)-1,2,3,6-tetrahydropyrimidin-1-yl]phenoxy}phenoxy]propionate] |  |  |  |  |  |  |  |  |  |  |  |  |  |  |  |  | completely controlled | completely controlled | completely controlled | completely controlled | emergence of Ivyleaf morningglory [14]: completely controlled; emergence of barnyardgrass [15]: completely controlled; emergence of velvetleaf [16]: completely controlled
CCOC(=O)COc1ccccc1Oc1cc(-n2c(=O)cc(C(F)(F)F)n(C)c2=O)c(F)cc1Cl [Compound 3-12, Ethyl [2-{2-chloro-4-fluoro-5-[3-methyl-2,6-dioxo-4-(trifluoromethyl)-1,2,3,6-tetrahydropyrimidin-1-yl]phenoxy}phenoxy]acetate] |  |  |  |  |  |  |  |  |  |  |  |  |  |  |  |  | completely controlled | completely controlled | completely controlled | completely controlled | emergence of Ivyleaf morningglory [1]: completely controlled; emergence of blackgrass [2]: completely controlled; emergence of barnyardgrass [3]: completely controlled; emergence of velvetleaf [4]: completely controlled
COC(=O)c1ccccc1Oc1cc(-n2c(=O)cc(C(F)(F)F)n(C)c2=O)c(F)cc1C#N [C, reference compound] | 2 | 3 | 6 | 1 | 4 | 6 | 2 | 4 | 6 | 2 | 3 | 5 | 1 | 3 | 5 | 1 |  |  |  |  | Herbicidal activity GF ([9]; 1 g/ha): 3; Herbicidal activity GF ([9]; 3.3 g/ha): 4
COC(=O)C(C)Oc1cccc(Oc2cc(-n3c(=O)cc(C(F)(F)F)n(C)c3=O)c(F)cc2Cl)c1 (centres unmarked) [Compound 2-1, methyl 2-[3-{2-chloro-4-fluoro-5-[3-methyl-2,6-dioxo-4-(trifluoromethyl)-1,2,3,6-tetrahydropyrimidin-1-yl]phenoxy}phenoxy]propionate] |  |  |  |  |  |  |  |  |  |  |  |  |  |  |  |  | completely controlled | completely controlled | completely controlled | completely controlled | emergence of Ivyleaf morningglory [14]: completely controlled; emergence of barnyardgrass [15]: completely controlled; emergence of velvetleaf [16]: completely controlled
COC(=O)COc1ccccc1Oc1cc(-n2c(=O)cc(C(F)(F)F)n(C)c2=O)c(F)cc1C#N [Compound 4-22] | 8 | 8 | 9 | 8 | 9 | 9 | 8 | 8 | 9 | 9 | 9 | 9 | 8 | 9 | 10 | 7 |  |  |  |  | Herbicidal activity GF ([9]; 1 g/ha): 8; Herbicidal activity GF ([9]; 3.3 g/ha): 10
CCOC(=O)C(C)Oc1ccccc1Oc1cc(-n2c(=O)cc(C(F)(F)F)n(C)c2=O)c(F)cc1Cl (centres unmarked) [Compound 3-2, Ethyl 2-[2-{2-chloro-4-fluoro-5-[3-methyl-2,6-dioxo-4-(trifluoromethyl)-1,2,3,6-tetrahydropyrimidin-1-yl]phenoxy}phenoxy]propionate] |  |  |  |  |  |  |  |  |  |  |  |  |  |  |  |  | completely controlled | completely controlled | completely controlled | completely controlled | emergence of Ivyleaf morningglory [1]: completely controlled; emergence of blackgrass [2]: completely controlled; emergence of barnyardgrass [3]: completely controlled; emergence of velvetleaf [4]: completely controlled
COc1ccccc1Oc1cc(-n2c(=O)cc(C(F)(F)F)n(C)c2=O)c(F)cc1C#N [B, reference compound] | 2 | 6 | 8 | 2 | 6 | 7 | 2 | 7 | 7 | 3 | 7 | 8 | 2 | 5 | 7 | 3 |  |  |  |  | Herbicidal activity GF ([9]; 1 g/ha): 5; Herbicidal activity GF ([9]; 3.3 g/ha): 7
